Laboratory results reported in ChEMBL document CHEMBL1201862, “PubChem BioAssay data set” (2004).
Activity calls are given as the source filed them.

What was measured:
[1] = target: Voltage-gated inwardly rectifying potassium channel KCNH2 (Homo sapiens, UniProt Q12809); assay: hERG protection from proarrhythmic block, potency, dose response, cell-based, thallium flux (AID 2121); type: ADME
[2] = target: T1, Tyrosine-protein phosphatase non-receptor type 7 (Homo sapiens, UniProt P35236); assay: inhibitors of human HePTP phosphatase, […], biochemical, absorbance, leukemia target (AID 521); type: functional
T1 sequence (P35236 whole entry): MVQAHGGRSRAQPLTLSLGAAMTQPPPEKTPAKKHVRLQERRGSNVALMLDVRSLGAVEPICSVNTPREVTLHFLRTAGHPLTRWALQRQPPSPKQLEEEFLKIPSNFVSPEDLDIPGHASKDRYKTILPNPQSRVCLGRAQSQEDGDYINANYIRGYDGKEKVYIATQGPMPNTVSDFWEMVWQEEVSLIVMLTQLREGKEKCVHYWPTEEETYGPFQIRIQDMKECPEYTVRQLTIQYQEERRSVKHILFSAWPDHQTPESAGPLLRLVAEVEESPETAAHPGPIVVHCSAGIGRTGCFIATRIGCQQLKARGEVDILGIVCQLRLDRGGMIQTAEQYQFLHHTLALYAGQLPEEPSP

[3] = target: T2, Dual specificity protein phosphatase 6 (Rattus norvegicus, UniProt Q64346); assay: MKP-3 phosphatase inhibitors, primary screen, biochemical, rat enzyme, in vitro (AID 425)
T2 sequence (Q64346 whole entry): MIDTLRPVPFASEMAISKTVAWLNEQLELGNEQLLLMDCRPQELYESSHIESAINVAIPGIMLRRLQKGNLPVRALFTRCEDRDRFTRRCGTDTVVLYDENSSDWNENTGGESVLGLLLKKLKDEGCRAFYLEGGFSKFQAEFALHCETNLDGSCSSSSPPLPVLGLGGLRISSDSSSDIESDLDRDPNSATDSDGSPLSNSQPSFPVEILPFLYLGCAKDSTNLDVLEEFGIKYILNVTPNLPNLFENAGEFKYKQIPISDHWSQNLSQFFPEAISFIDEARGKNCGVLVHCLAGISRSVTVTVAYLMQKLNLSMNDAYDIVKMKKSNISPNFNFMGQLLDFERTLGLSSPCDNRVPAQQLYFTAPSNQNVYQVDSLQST

Major prion protein = Major prion protein (Homo sapiens, UniProt P04156); type: functional, cell-based
[4] = target: T3, Sphingosine 1-phosphate receptor 2 (Homo sapiens, UniProt O95136); assay: Dose Response Cell Based Assay for Antagonists of the S1P2 Receptor. [Related pubchem assays: 856, 736 ]; type: functional
[5] = inhibitors of intracellular T. cruzi replication, confirmation, NIH3T3 host cells, beta-gal luminescence (AID 2044); type: functional, cell-based;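 note: intracellular parasites grown in NIH/3T3 mouse fibroblasts as host cells; luminescent beta-galactosidase reporter signal from transgenic T. cruzi replicating inside host cells; inhibitors lower the luminescence signal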
[6] = cytotoxicity toward NIH3T3 fibroblasts, dose response, counter-screen, cell-based, ATP luminescence, mouse fibroblasts (AID 2010); type: functional;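 note: cells exposed to compound for about 90 hours before reading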
[7] = cytotoxicity in HEK-293T cells, dose response, cytotoxicity control for TCR NF-kB inhibitor project, luminescence, T-cell screen hits (AID 489026); type: functional, cell-based;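 note: cells exposed to compound about 14 hours before the viability readout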
INS1 = assay: beta cell apoptosis inhibitors, cytokine rescue, dose response, luminescence, retest (AID 449756); type: functional, cell-based; conditions: Rattus norvegicus;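 note: cell death triggered by IL-1 beta plus TNF-alpha plus IFN-gamma mixture; protective hits raise ATP signal compared with cytokine alone wells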
[8] = Shn3 3'UTR reporter inhibitors, dose response, cell-based, Clone20 osteoblasts, firefly luciferase, cherry-picked (AID 624132); type: functional;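 note: firefly luciferase luminescence from reporter carrying the Shn3 3'UTR in osteoblasts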
[9] = HepG2 cell cytotoxicity, dose response, cytotoxicity control for Shn3 inhibitor project, CellTiter-Glo, cherry-picked (AID 624134); type: functional, cell-based
[10] = control 3'UTR Renilla luciferase suppression, dose response, counter-screen for Shn3 inhibitor project, cell-based, Clone20-Shn3RL, cherry-picked (AID 624133); type: functional
Vero [11] = assay: West Nile virus antiviral activity, cell-based, CPE readout (AID 1621); type: functional; conditions: Chlorocebus sabaeus
[12] = target: T4, DNA repair and recombination protein RAD54-like (Homo sapiens, UniProt Q92698); assay: inhibitors of human RAD54 branch migration, confirmation, biochemical, fluorescence, cherry-picked samples, dose series (AID 651657); type: functional
T4 sequence (Q92698 whole entry): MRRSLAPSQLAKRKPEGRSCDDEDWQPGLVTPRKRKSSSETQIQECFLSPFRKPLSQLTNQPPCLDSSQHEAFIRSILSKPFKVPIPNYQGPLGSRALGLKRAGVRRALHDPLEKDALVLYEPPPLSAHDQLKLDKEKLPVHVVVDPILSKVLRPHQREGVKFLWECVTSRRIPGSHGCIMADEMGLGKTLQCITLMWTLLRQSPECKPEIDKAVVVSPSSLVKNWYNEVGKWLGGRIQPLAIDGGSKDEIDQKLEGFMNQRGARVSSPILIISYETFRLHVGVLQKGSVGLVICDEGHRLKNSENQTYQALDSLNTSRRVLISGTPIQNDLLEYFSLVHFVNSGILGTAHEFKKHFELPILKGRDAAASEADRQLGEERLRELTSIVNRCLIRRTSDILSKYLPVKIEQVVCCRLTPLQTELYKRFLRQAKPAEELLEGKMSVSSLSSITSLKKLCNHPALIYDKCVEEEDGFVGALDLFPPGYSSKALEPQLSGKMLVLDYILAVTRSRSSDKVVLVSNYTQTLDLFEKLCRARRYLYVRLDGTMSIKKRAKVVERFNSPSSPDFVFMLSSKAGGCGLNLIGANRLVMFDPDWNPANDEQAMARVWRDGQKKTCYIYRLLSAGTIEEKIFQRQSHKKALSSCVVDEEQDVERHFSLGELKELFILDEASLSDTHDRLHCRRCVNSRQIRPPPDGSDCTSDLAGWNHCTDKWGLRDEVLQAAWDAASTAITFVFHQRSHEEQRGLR

[13] = target: T5, DNA repair protein RAD52 homolog (Homo sapiens, UniProt P43351); type: functional, biochemical
T5 sequence (P43351 whole entry): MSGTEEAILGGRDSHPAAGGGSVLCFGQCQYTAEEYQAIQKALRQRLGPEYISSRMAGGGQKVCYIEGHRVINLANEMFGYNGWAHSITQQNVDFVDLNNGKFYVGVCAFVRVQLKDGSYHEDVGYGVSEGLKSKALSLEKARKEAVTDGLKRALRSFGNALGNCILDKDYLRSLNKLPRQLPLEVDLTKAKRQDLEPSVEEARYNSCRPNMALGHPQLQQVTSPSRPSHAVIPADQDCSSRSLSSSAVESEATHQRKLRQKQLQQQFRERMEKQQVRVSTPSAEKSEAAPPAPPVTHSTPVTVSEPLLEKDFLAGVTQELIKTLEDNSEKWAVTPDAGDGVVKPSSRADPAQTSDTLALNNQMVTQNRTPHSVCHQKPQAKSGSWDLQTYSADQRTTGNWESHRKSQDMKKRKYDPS

[14] = target: T3, Sphingosine 1-phosphate receptor 2; assay: Dose Response Cell Based Assay for Agonists of the S1P2 Receptor. [Related pubchem assays: 729, 736, 843 ]; type: functional
[15] = target: T6, Replicative DNA helicase DnaB (Mycobacterium tuberculosis, UniProt P9WMR3); assay: DnaB intein splicing inhibitors, dose response, biochemical, cell-free fluorescence (AID 449749); type: functional
T6 sequence (P9WMR3 whole entry): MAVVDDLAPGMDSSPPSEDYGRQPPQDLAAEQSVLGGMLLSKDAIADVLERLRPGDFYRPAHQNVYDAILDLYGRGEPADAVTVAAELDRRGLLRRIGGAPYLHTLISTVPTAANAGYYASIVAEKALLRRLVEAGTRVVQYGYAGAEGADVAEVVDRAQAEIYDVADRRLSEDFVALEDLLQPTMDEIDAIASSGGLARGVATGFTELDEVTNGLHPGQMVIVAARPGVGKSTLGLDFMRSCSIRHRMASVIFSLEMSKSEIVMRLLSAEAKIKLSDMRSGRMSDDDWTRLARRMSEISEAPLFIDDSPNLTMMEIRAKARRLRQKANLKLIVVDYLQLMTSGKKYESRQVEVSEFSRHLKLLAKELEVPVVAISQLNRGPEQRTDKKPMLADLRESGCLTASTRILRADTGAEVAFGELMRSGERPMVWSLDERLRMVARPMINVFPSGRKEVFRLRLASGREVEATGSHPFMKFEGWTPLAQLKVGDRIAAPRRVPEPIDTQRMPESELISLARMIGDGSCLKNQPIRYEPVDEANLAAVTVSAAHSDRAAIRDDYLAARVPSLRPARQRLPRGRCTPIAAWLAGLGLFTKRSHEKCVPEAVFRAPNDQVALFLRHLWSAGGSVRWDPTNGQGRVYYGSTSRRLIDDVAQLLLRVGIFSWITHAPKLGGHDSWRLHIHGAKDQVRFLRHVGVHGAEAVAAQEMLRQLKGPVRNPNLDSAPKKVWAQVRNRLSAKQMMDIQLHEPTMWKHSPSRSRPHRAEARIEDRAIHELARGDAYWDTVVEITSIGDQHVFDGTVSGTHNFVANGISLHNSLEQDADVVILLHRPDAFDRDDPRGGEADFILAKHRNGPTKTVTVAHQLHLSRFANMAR

Protein RecA = target: T7, Protein RecA (Mycobacterium tuberculosis, UniProt P9WHJ3); assay: Fluorescence Cell-Free Homogeneous Dose Retest to Identify Inhibitors of RecA-Intein Splicing Activity. [Related pubchem assays (depositor defined):AID2097, AID2223, AID489010, AID492950]; type: functional
T7 sequence (P9WHJ3 whole entry): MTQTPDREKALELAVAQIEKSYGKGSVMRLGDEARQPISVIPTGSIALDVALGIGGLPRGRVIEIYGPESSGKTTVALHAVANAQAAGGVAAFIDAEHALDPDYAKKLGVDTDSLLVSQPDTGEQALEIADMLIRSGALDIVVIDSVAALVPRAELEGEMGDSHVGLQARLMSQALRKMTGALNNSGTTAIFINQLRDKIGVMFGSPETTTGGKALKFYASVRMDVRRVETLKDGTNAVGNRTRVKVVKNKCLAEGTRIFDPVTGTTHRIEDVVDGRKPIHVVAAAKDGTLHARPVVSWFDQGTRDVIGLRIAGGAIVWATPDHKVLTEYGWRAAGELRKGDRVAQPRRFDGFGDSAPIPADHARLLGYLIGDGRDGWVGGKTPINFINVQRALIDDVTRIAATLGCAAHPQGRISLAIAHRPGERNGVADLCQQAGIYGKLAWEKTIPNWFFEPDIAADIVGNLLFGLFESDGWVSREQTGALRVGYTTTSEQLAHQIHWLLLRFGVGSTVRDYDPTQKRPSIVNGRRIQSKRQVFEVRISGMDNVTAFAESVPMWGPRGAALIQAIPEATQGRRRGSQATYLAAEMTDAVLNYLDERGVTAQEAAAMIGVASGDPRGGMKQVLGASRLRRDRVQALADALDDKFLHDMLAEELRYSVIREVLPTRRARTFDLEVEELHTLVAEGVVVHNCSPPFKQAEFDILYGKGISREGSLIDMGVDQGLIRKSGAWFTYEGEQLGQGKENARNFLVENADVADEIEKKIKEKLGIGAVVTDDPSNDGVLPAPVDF

Vero [16] = assay: cells; type: functional; conditions: Chlorocebus sabaeus
[17] = target: T1, Tyrosine-protein phosphatase non-receptor type 7; type: functional
Bcl-2-like protein 10 = target: T8, Bcl-2-like protein 10 (Homo sapiens, UniProt Q9HD36); assay: displacers of TR3 peptide from Bcl-B, primary screen, selectivity assay for Bfl-1 inhibitor project, biochemical, fluorescence polarization, FITC-TR3 peptide (AID 748);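 note: fluorescence polarization from a fluorescein-labelled TR3 peptide binding purified Bcl-B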
T8 sequence (Q9HD36 whole entry): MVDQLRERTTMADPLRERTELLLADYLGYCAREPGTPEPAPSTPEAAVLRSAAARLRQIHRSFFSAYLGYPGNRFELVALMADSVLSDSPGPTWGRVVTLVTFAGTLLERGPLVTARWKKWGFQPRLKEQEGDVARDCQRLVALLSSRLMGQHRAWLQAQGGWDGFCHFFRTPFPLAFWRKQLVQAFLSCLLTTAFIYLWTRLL

[18] = target: Glyceraldehyde-3-phosphate dehydrogenase (Homo sapiens, UniProt P04406)
[19] = target: T2, Dual specificity protein phosphatase 6
Cytochrome P450 2C19 = Cytochrome P450 2C19 (Homo sapiens, UniProt P33261); assay: Cytochrome panel assay with activity outcomes. Panel member name: p450-cyp2c19 Compounds with AC50 equal or less than 10 uM are considered active; type: functional; conditions: read-out: AC50
[20] = target: T2, Dual specificity protein phosphatase 6; type: functional

T3 sequence (O95136 whole entry): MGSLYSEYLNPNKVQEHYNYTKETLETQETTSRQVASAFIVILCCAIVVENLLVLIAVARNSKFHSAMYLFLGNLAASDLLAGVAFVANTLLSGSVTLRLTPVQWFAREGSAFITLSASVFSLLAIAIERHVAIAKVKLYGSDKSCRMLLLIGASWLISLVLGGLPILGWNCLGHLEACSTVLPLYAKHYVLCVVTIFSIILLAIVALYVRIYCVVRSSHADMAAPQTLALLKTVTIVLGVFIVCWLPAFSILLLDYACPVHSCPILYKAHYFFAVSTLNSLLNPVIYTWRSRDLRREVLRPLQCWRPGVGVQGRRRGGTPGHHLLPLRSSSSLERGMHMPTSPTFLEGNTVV
Chain of Cytochrome P450 2C19 (P33261 whole entry): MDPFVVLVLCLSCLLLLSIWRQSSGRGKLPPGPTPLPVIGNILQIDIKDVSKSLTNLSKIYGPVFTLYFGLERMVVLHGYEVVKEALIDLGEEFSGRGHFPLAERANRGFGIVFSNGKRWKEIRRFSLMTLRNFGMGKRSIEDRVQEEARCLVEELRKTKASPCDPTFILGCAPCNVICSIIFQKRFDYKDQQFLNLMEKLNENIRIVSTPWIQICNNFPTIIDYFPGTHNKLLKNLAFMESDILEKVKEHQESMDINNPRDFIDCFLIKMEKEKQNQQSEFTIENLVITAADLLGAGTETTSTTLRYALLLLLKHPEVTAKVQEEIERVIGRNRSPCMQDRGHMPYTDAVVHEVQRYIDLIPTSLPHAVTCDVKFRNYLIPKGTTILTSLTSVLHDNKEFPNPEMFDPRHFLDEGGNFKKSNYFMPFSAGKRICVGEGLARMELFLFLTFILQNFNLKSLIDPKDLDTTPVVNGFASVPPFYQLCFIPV
Chain of Voltage-gated inwardly rectifying potassium channel KCNH2 (Q12809 whole entry): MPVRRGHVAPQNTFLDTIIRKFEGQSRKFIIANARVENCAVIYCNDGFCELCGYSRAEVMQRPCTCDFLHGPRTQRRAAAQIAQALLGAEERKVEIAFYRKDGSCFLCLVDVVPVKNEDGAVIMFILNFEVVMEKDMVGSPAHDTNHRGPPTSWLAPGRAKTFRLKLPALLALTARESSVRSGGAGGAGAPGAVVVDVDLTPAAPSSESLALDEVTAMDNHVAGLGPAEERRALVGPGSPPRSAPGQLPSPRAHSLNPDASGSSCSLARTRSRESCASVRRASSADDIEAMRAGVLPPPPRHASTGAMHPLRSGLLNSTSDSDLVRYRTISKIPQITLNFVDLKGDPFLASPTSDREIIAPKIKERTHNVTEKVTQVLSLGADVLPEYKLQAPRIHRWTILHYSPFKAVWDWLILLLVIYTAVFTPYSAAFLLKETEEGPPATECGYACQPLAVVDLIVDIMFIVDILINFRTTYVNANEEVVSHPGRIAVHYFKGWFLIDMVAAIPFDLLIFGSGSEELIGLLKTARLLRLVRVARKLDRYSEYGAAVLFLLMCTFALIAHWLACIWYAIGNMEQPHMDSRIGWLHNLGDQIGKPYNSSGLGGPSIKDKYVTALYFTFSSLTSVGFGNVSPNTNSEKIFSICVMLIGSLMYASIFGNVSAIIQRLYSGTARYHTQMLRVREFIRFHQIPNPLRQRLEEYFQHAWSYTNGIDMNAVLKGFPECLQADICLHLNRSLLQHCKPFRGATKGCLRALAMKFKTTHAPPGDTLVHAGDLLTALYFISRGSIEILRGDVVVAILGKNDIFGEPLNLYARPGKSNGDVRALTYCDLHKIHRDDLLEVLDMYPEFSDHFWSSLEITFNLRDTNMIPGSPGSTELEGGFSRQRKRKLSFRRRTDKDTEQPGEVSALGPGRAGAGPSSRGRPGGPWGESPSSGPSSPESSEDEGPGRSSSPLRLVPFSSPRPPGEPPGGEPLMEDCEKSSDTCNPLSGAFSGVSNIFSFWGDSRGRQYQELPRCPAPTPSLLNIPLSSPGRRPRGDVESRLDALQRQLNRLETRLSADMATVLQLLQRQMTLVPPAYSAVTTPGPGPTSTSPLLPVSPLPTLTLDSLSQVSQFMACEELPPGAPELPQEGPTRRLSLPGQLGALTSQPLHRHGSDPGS
Chain of Glyceraldehyde-3-phosphate dehydrogenase (P04406 whole entry): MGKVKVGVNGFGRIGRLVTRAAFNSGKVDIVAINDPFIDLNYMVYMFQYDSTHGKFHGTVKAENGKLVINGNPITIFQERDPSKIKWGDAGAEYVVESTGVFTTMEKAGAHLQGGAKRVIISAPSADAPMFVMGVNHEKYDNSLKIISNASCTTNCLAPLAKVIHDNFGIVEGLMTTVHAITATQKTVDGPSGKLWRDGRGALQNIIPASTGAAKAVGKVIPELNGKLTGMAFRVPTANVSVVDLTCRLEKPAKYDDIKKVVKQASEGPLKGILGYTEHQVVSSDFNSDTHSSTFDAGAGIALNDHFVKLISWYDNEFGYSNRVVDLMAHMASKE

Compound: COc1ccc(-c2csc(NC(=S)NC(=O)c3cccs3)n2)cc1Br
- EC50 [1]: 1.41 µM (active)

Compound: NC(=O)CSc1nnc2n(-c3ccccc3)c(=O)c3c4c(sc3n12)CCCCC4
- IC50 [2]: 2.54 µM (active)
- IC50 [3]: > 10 µM (not active)
- IC50 (Major prion protein): 4.66 µM (active)
- IC50 (cells): 130 µM (inactive)

Compound: Nc1nc(Cl)cc(N2CCC(c3cc(-c4ccc(Cl)cc4)[nH]n3)CC2)n1
- IC50 [4]: 7.01 µM (active)
- EC50 [5]: 2.13 µM (active)
- EC50 [6]: 7.5 µM (active)
- IC50 [7]: 64.3 µM (inactive)
- AC50 (INS1): 4.41 µM (active)
- AC50 [8]: 2.43 µM (active)
- AC50 [9]: 19.5 µM (active)
- AC50 [10]: 11.1 µM (active)

Compound: CCCN(CCC)CCCN=C(S)Nc1ccc2nc(N3CCCC3)cc(C)c2c1
- EC50 [5]: 1.96 µM (active)
- EC50 [6]: 10.1 µM (active)
- IC50 (Vero [11]): 25.4 µM (active)
- AC50 [12]: 19.4 µM (active)
- AC50 [13]: 9.06 µM (active)

Compound: Nc1c(C(=O)NCCCc2ccccc2)c2nc3ccccc3nc2n1Cc1cccs1
- EC50 [5]: 2.17 µM (active)
- EC50 [6]: > 60 µM (not active)
- EC50 [14]: 2.2 µM (active)
- AC50 [15]: 29.3 µM (active)
- EC50 (Protein RecA): 3.3 µM (active)
- CC50 (Vero [16]): > 25 µM (active)

Compound: COC(=O)c1sc2cc(C(F)(F)F)cnc2c1-c1ccccc1
- IC50 [4]: > 30 µM (not active)

Compound: Cc1ccc(C)n1C(Cc1ccccc1)C(=O)O (configuration not stated)
- IC50 [17]: 28 µM (active)
- IC50 (Bcl-2-like protein 10): < 0.195 µM (inactive)
- IC50 [18]: > 100 µM (not active)
- IC50 [19]: > 100 µM (inactive)
- IC50 [3]: > 10 µM (not active)
- AC50 (Cytochrome P450 2C19): 22.4 µM (inconclusive)
- IC50 [20]: > 100 µM (inactive)
